Results from patent publication US7615238B2, “Plaster for the treatment of dysfunctions and disorders of nails, comprising sertaconazole” (Trommsdorff GmbH & Co. KG Arzneimitttel, priority 2001, dated 2009).

Tested on: fungi such as Trichophyton mentagrophytes, Trichophyton rubrum, Candida albicans, Microsporum canis, Aspergillus niger
Assay: Efficacy against fungi in comparison with other antifungal agents
Conditions: in most cases, Trichosporum, Alternaria, Acremonium, Fusarium, Scopulariopsis

(R,S)-1-[2-[(7-Chloro-3-benzo[b]thienyl)-methoxy]-2-(2,4-dichlorophenyl)-ethyl]-1H-imidazole [sertaconazole]
efficacy against fungi in comparison with econazole, ketonazole, miconazole, or bifonazole: higher efficacy
